According to US20240342138A1, “MICROTUBULE TARGETING AGENTS” (BPGbio, Inc., priority 2023, published 2024):

System: A549 tumors
Assay: Lung adenocarcinoma xenograft model
Type: in vivo, nude mice
Details: for Highest TGI (%): Day 7
Protocol: FIG. 13A-13B show efficacy of Compound 1 in a lung adenocarcinoma xenograft model (A549). A) In vitro potency of Compound 1 in A549 cells as evaluated by ATPlite 1Step™ Perkin Elmer (performed by NTRC Oncolines). B) A549 cells (5×10^6) were implanted subcutaneously in athymic female nude mice and tumors were allowed to grow to a volume of ˜112 mm^3 followed by randomization of animals into three (3) groups (vehicle control, 75 mg/kg, 150 mg/kg Compound 1) with 12 animals per group. A Compound 1 solid dispersion was prepared prior to each dosing and administered by oral gavage two times a day (BID). Mean tumor volume of each group over time and the growth of tumor in each individual animal was graphed. For each individual animal of […] group TGI (%) was calculated based on the tumor growth inhibition of individual tumor at each given day of the study compared to the average of the group for that given day of the study. P-values were calculated using two-tailed distribution and two-sample equal variance (homoscedastic) for each group treated with Compound 1 for each given day of the study in reference to vehicle control. NS p>0.05; *p≤0.05; **p≤0.01; ***p p≤0.001; **** p≤0.0001.
Anti-tumor efficacy of Compound 1 was evaluated against three (3) different preclinical oncology mice models of colorectal cancer, prostate cancer, and lung adenocarcinoma (see Table 5 below). For this purpose, an oral formulation of Compound 1 was used.
A549 is a human lung adenocarcinoma cell line isolated from the lung tissue of their origin. […] A549 cells were implanted subcutaneously in nude mice and tumors were allowed to grow to an average volume of 112 mm^3 followed by randomization into three (3) groups consisting of vehicle control, 75 mg/kg and 150 mg/kg Compound 1 (12 animals per group). A Compound 1 solid dispersion was administered by oral gavage two times a day (BID). All animals remained in the study until Day 28 except one animal from Group 3 (Animal #29), which exited the study on Day 11 due to more than 20% body weight loss. This animal was excluded from all analysis. Data from Day 14-18 were excluded from the analysis due to inconsistencies in data collection methods.

SMILES: COc1ccccc1-c1nc(CNC(=O)c2ccccc2OC(F)F)n[nH]1 [Compound 1, 2-(difluoromethoxy)-N-[[5-(2-methoxyphenyl)-1H-1,2,4-triazol-3-yl]methyl]benzamide]
- Highest TGI (%) (75 mg/kg BID oral): 36.61%
- Highest TGI (%) (150 mg/kg BID oral): 55.43%
- Maximum TGI (%), end of the study (150 mg/kg dose): 34.64%
- Body weight (75 and 150 mg/kg): no drug effect
- Average tumor growth (all doses evaluated, FIG. 13B): decreased the average tumor growth at all doses evaluated
